From US20250302051A1, “COMPOSITIONS WITH NANOPLATELET OXIDES OR HYDROXIDES AND METHODS OF PREPARING AND USING SAME” (Aqua Resources Corporation, priority 2024, published 2025)

Tests used:
B. cereus (ATCC 14579) = experiment: Nanoplatelet composition vs antibiotic parallel test, B. cereus; format: cell-based
MRSA (S. aureus) = experiment: Nanoplatelet composition vs antibiotic parallel test, MRSA; format: cell-based, Staphylococcus aureus
Experimental: The nanoplatelet composition achieved total mitigation of MRSA from a 7 log pathogen population (10 million bacteria per mL) to zero in 3 hours. Levoflaxin, a commonly administered antibiotic used for treating MRSA, was tested at clinical doses and is shown as the dashed line. At various concentrations, the nanoplatelet composition eliminated MRSA more completely than levoflaxin after 24 hours with no rebound.

S. aureus (VISA) = experiment: Nanoplatelet composition vs antibiotic parallel test, VISA; format: cell-based
CRE (K. pneumoniae) = experiment: Nanoplatelet composition vs antibiotic parallel test, CRE K. pneumoniae; format: cell-based
CRE (E. coli) = experiment: Nanoplatelet composition vs antibiotic parallel test, CRE E. coli; format: cell-based; conditions: within 24 hours; colistin 2 μg/mL; FIG. 8

## O=C(O)c1cn(C2CC2)c2cc(N3CCNCC3)c(F)cc2c1=O [Cyproflaxin]
B. cereus (ATCC 14579)
  Log Kill: 0.5 Log

## C[C@H]1COc2c(N3CCN(C)CC3)c(F)cc3c(=O)c(C(=O)O)cn1c23 [Levoflaxin]
MRSA (S. aureus)
  Log Kill: 4.5 Log

## CC(=O)NC[C@H]1CN(c2ccc(N3CCOCC3)c(F)c2)C(=O)O1 [Linezolid]
S. aureus (VISA)
  Log Kill: 0.5 Log

## CN(C)c1cc(NC(=O)CNC(C)(C)C)c(O)c2c1C[C@H]1C[C@H]3[C@H](N(C)C)C(O)=C(C(N)=O)C(=O)[C@@]3(O)C(O)=C1C2=O [Tigecycline]
CRE (K. pneumoniae)
  Log Kill: 8 Log
  Time to Zero: 24 h

## Colistin
CRE (E. coli)
  rebound of bacteria population: completely rebounded
